What was measured:
[1] = system: Mice; test: In vivo GLP-1 secretion (GLP-1 protocol and GLP-1 assay); design: species or system mouse; settings: 30 mg/kg, portal vein blood
Procedure: (§1) Vehicle is CMC-Tween: 0.5% CMC+0.25% Tween 20 at an appropriate ml/kg. Dextrose dose per mouse=2 g dextrose/kg made from 0.5 g/ml stock dextrose solution. Compound 1 dose per mouse=30 mg/kg in CMC/Tween vehicle made from 4 mg/mL stock solution by adding 50 μL DMSO to 20 mg Compound 1, stirring to make a paste, adding 1 ml CMC/Tween with stirring, sonicating for 8 minutes on energy 05, and adjusting to 5 ml with CMC/Tween.
Mice (3 per group) were fasted at 6 am for an experiment at noon. Blood glucose was measured from tail nick blood using an Accucheck—Compact Monitoring Kit (Roche Diagnostics, Indianapolis Ind.). Baseline (time=−15 min) blood glucose concentration was determined for all mice. 2 g/kg dextrose (Hospira, Lake Forest, Ill.) was administered orally at time 0. Terminal blood samples were collected from the mice via portal vein draw (˜500 μL) into EDTA microtainer tubes at the following time points: −15, 0, 3, 6, 9, 12, 15, 20, 30 and 120 min. […] Plasma was stored in −80 C freezer to be analyzed for other chemistry measurements.
A GLP-1(Human, Mouse, Rat) ELA kit was used (ALPCO Diagnostics, Salem, N.H., Cat # 48-GLP-1-160) was used in a 96-well plate. […] 100 μl/well stop solution was added to each well to stop reaction, optical absorbance of wells read at 490 nm, and results calculated.

[2] = system: Mice; test: Glucose-stimulated insulin secretion (GTT/insulin test, insulin ELISA); type: in vivo, mouse; settings: 30 mg/kg; for Plasma Insulin, AUC, Mean: glucose-stimulated insulin secretion, in ng·min/mL (unit assumed)
Procedure: as §1
Mice (5 per group) were fasted at 6 am for an experiment at noon. Blood glucose was measured from tail nick blood using an Accucheck—Compact Monitoring Kit (Roche Diagnostics, Indianapolis Ind.). Baseline (time=−15 min) blood glucose concentration was determined for all mice and tail nick blood samples were collected. 2 g/kg dextrose (Hospira, Lake Forest, Ill.) was administered orally at time 0. […] Terminal blood samples were collected from portal vein draws in three mice at t=20. Blood plasma was harvested from blood collected in EDTA microvettes by centrifugation (10 min at […]). Plasma was stored in −80 C freezer to be analyzed for other chemistry measurements.
A Mercodia ultrasensitive mouse insulin ELISA kit (Mercodia AB, Uppsala, Sweden) was used in a 96-well coated plate. All reagents and samples were brought to room temperature before use, Calibrator concentrations were 0.07, 0.13, 0.25, 0.63, 1.9, 5.2, 13.0, and 64.0 μg/L, and a calibration curve was prepared for each assay run. To 25 μL calibrator 0 in each well was added 5 μL calibrators and 5 μL of samples/standards in duplicate, then 50 μL dilute enzyme conjugate 11× in enzyme conjugate buffer. This was incubated on a shaker for 2 hours at room temperature (18-25° C.), and each well was washed 5 times in 350 μL wash buffer and aspirated completely. After final wash, plate was inverted and tapped firmly against absorbent paper. 200 μL substrate TMB was added to each well and incubated for 30 minutes. 50 μL stop solution was added to each well, and the plate was placed on the shaker for about 5 seconds to ensure mixing of substrate and stop Solution. Absorbance was measured at 450 nm.

[3] = 2 g/kg dextrose orally at time 0, time 20 min
[4] = 2 g/kg dextrose orally at time 0, time −15 min (baseline)

In the case of `O=c1c2ccccc2nc(-c2ccc(F)cc2)n1NCc1ccc(Br)cc1` [Example 1], the “Plasma GLP-1, Mean” value [1, 3] is reported as 9.61 ng/mL, the “Plasma GLP-1, Mean” value [1, 4] is reported as 6.30 ng/mL and the “Plasma Insulin, Mean” value ([2]; 2 g/kg dextrose orally at time 0, time 0 min) is reported as 1.56 ng/mL. The “Plasma Insulin, Mean” value ([2]; 2 g/kg dextrose orally at time 0, time 3 min) was 2.35 ng/mL, the “Plasma Insulin, Mean” value ([2]; 2 g/kg dextrose orally at time 0, time 6 min) was 3.24 ng/mL and the “Plasma Insulin, Mean” value ([2]; 2 g/kg dextrose orally at time 0, time 9 min) was 3.94 ng/mL. The “Plasma Insulin, Mean” value ([2]; 2 g/kg dextrose orally at time 0, time 12 min) was 4.18 ng/mL, the “Plasma Insulin, Mean” value ([2]; 2 g/kg dextrose orally at time 0, time 15 min) was 4.05 ng/mL and the “Plasma Insulin, Mean” value [2, 3] was 3.79 ng/mL. For the same molecule, the “Plasma Insulin, Mean” value ([2]; 2 g/kg dextrose orally at time 0, time 30 min) was 1.82 ng/mL, the “Plasma Insulin, Mean” value ([2]; 2 g/kg dextrose orally at time 0, time 60 min) was 1.23 ng/mL and the “Plasma Insulin, Mean” value ([2]; 2 g/kg dextrose orally at time 0, time 120 min) was 1.17 ng/mL. For the same molecule, the “Plasma Insulin, Mean” value [2, 4] was 1.78 ng/mL, the “Plasma Insulin, AUC, Mean” value ([2]; 0-15 min) was 35.15 and the “Plasma Insulin, AUC, Mean” value ([2]; 0-30 min) was 68.39.

Reference: patent US20090035306A1 (KALYPSYS, INC., priority 2006, published 2009)
